The values below come from US8791046B2, “Crystalline modification of fipronil” (BASF SE, priority 2006, dated 2014).

The nature of data set [1]: Solubility and dissolution rate in solvents. Conditions: in most solvents. It is filed as physicochemical.
A short description of data set [2]: Stability of the acetone solvate crystal form at ambient conditions. The class given is physicochemical. Conditions: co-crystallized acetone solvent is volatile at ambient conditions.

Consider fipronil [crystalline modification IV], for which, in data set [1], the dissolution rate entry is given as “remarkable high” and the solubility result was “remarkable high”. Also, the “stability of the crystalline modification” value in data set [2] is recorded as “remarkable stability”.
